What was measured:
[1] = molecular target: [11C]PBB3 binding sites (tau aggregates) in temporal cortex homogenates of an Alzheimer's disease patient (Homo sapiens, UniProt P10636); test: Fluorescence competitive binding assay in vitro ([11C]PBB3 displacement in Alzheimer's disease temporal cortex homogenates); conditions: 5 nM [11C]PBB3, AD temporal cortex homogenate (100 μg tissue), 30 min, room temperature
Protocol: Fluorescence competitive binding assay in vitro was performed as reported previously1. Frozen tissues derived from the temporal cortex of an Alzheimer's disease patient was homogenized in 50 mM Tris-HCl buffer, pH 7.4, containing protease inhibitor cocktail (cOmplete™, EDTA-free; Roche), and stored at −80° C. pending analyses. To assay radioligand binding with homologous or heterologous blockade, these homogenates (100 μg tissue) were incubated with 5 nM [11C]PBB3 (molar radioactivity: 100-150 GBq/μmol) in the absence or presence of unlabeled PBB3 at varying concentrations ranging from 10-11-106 M in Tris-HCl buffer containing 10% ethanol, pH 7.4, for 30 min at room temperature. Non-specific binding of [11C]PBB3 was determined in the presence of 5×10^−7 M PBB3. Samples were run once only and specific radioligand binding was determined as pmol/g tissue. Inhibition constant (Ki) and percentage of displacement were determined by using non-linear regression to fit a concentration-binding plot to one-site and two-site binding models derived from the Cheng-Prusoff equation with GraphPad Prism version 6.0 (GraphPad Software), followed by F-test for model selection. In a one-site homologous blockade model, dissociation constant (Kd) was calculated from homologous competitive binding using this function: Kd=Ki=IC50−Radioligand
where IC50 and [Radioligand] stand for the concentration of the competitor inducing 50% inhibition and radioligand concentration, respectively. Experiments with [^11C]PBB3 and unlabeled PBB3 were performed in a dimly lit condition to avoid photoconversion of the compounds. Table B lists Ki values of exemplary test compounds.

[2] = test system: tau aggregates (tangles/threads) in temporal cortex sections of an AD brain; test: Histological examination by fluorescence staining of AD brain sections; type: binding, human; conditions: 0.001% (W/V) compound in 50% ethanol, 30 min, relative to PBB3; for Fluorescent binding Tangle: score for tangles; for Fluorescent binding Thread: score for threads
Protocol: The fluorescence binding assessment was performed as reported previously^1. For fluorescence labeling with PBB3 and test compounds, deparaffinized temporal cortex sections of an AD brain were incubated in 50% ethanol containing 0.001% (W/V) of PBB3 or test compound at room temperature for 30 min. The samples were rinsed with 50% ethanol for 5 min, dipped into distilled water twice for 3 min, and mounted in non-fluorescent mounting media ([…]; Vector Laboratories). Fluorescence images were captured using a DM4000 microscope (Leica) equipped with a custom filter cube for PBB3 (excitation band-pass at 391-437 nm and suppression low-pass with 458 nm cutoff).

[3] = molecular target: recombinant tau proteins (human Tau, heparin-fiberized) (Homo sapiens, UniProt P10636); test: Fluorescence quantitative Tau binding assay in vitro; conditions: 0.04 uM fiberized recombinant tau, 30 mM Tris pH 7.5, 1 h, fluorometric saturation curve
Protocol: Expression and Purification of Human Tau Protein
• pET41a-Tau wild type • One Shot® BL21(DE3) Chemically Competent E. coli (Invitrogen, C600003) • Kanamycin sulfate (Sangon Biotech, A506636) • IPTG (Sangon Biotech, A100487) • Pipes buffer (100 mM Pipes, pH6.8, 1 mM EGTA, 1 mM MgSO4) • Hepes buffer (25 mM Hepes, pH7.2, 0.1 mM EDTA, 0.5 mM DTT, 100 mM NaCl) • Q-Sepharose Fast Flow column (GE Healthcare, 17-0510-01) • SP-Sepharose Fast Flow column (GE Healthcare, 17-0729-01) Procedures: Protein Expression: • Step 1: Transform 1 uL expression plasmid pET41a-tau wt into one One Shot® BL21(DE3) Chemically Competent E. coli, on ice 30 min. • Step 2: 42° C. heat shock 90 second and on ice 2 min, 37° C. recovery for 30 min, Plate small amount on LB(Kan+) agar plate incubate overnight at 37° C. • Step 3: Pick and resuspend a single colony in 200 mL liquid culture with 50 ug/mL Kanamycin to produce a starter culture. Inoculate starter culture and shake 200 rpm overnight at 37° C. • Step 4: Add 100× dilution Starter into fresh culture medium (Kan+) shake 200 rpm at 37° C. until OD600=0.8. • Step 5: Add IPTG (final conc. 1 mM) and express protein for 3 hr. • Step 6: Collect cell pellet and store at −80° C. for purification. Protein Purification: • Step 1: Cell pellet was resuspended in Pipes buffer. • Step 2: Sonication and centrifugation (15,000 rpm, 15 min at 4° C. • Step 3: The supernatant was placed in a boiling water bath for 20 min and subsequently centrifuged. The heat-stable proteins in the supernatant were loaded onto a Q-Sepharose Fast Flow column (20 mL) • Step 4: The flow through containing tau was loaded onto SP-Sepharose Fast Flow column (10 mL), eluted with Pipes buffer containing 0.2M NaCl. • Step 6: Fractions containing tau were pooled, concentrated and dialyzed against Hepes buffer, stored at −80° C. • Step 7: Reload SP-Flow through into Q-Sepharose Fast Flow column (20 mL) and SP-Sepharose Fast Flow column (10 mL) again, eluted with Pipes buffer containing 0.2M NaCl. • Step 8: Fractions containing tau were pooled, concentrated and dialyzed against Hepes buffer, stored at −80° C. Repeat step 6-7 twice, Collect all above all elution product and concentrated. Biological Assays Fluorescence Quantitative Tau Binding Assay In Vitro
2 uM of recombinant tau proteins and 15 uM of heparin were fiberized in 30 mM Tris (pH 7.5) buffer by overnight incubation at 37° C. 0.04 uM of recombinant tau proteins which was diluted in 30 mM Tris buffer (pH 7.5) was then reacted with test compounds (containing 1% DMSO) for 1 h. Regarding the fluorometric data, the binding saturation curve was created and the parameter estimation method was conducted using Prism software (GraphPad). Kd values were determined for each of test compounds. Table A lists Kd values of exemplary test compounds.

Chain of recombinant tau proteins (human Tau, heparin-fiberized) (P10636 whole entry): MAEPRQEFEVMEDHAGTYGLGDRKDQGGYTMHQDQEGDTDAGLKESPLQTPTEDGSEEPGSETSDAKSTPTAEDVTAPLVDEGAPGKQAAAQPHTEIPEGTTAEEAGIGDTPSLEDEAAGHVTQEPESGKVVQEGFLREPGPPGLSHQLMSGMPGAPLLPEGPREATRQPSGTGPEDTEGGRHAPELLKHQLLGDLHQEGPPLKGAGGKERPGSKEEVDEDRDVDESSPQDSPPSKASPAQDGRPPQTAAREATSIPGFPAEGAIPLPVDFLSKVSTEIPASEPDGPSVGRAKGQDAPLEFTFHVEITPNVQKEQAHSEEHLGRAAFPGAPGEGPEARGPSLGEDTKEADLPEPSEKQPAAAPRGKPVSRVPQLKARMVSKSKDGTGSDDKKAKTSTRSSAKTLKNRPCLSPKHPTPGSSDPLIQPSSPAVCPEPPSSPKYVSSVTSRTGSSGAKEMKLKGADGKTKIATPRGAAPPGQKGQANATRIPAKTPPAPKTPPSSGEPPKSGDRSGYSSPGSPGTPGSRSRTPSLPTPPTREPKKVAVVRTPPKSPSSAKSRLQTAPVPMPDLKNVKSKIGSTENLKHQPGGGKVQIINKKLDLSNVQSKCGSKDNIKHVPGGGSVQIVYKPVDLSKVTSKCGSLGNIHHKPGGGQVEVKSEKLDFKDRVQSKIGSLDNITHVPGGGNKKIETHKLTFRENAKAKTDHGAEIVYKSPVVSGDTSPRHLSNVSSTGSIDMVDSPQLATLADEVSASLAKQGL
Chain of [11C]PBB3 binding sites (tau aggregates) in temporal cortex homogenates of an Alzheimer's disease patient (P10636 623-695 limits assumed): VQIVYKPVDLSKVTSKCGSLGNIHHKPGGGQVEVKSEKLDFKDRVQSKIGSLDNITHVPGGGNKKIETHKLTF

Structure (SMILES)	Ki [1] [nM]	Fluorescent binding Tangle [2]	Fluorescent binding Thread [2]	Kd [3] [nM]
COc1ccc2nc(-c3ccc(-c4ccc(N(C)C)nc4F)cc3)cn2c1 [Compound Q, 6-Fluoranyl-5-[4-(6-methoxyimidazo[1,2-a]pyridin-2-yl)phenyl]-N,N-dimethyl-pyridin-2-amine]	5	1	0.5	520
CNc1ccc(-c2ccc(-c3nc4ccc(NCC(O)CF)cc4s3)cc2)cn1 (stereo not drawn) [Compound J, 1-Fluoranyl-3-[[2-[4-[6-(methylamino)pyridin-3-yl]phenyl]-1,3-benzothiazol-6-yl]amino]propan-2-ol]	5	3/3	3/3	890
CN(C)c1ccc(-c2ccc(-c3cn4cc(OCC(O)CF)ccc4n3)cc2)cn1 (stereo not drawn) [Compound O, 1-(2-(4-(6-(Dimethylamino)pyridin-3-yl)phenyl)imidazo[1,2-a]pyridin-6-yloxy)-3-fluoropropan-2-ol]	10	1.5/1.5	1.5/1.5	270
CNc1ccc(-c2ccc(-c3cn4cc(NCC(O)CF)ccc4n3)cc2)cn1 (stereo not drawn) [Compound P, 1-Fluoro-3-(2-(4-(6-(methylamino)pyridin-3-yl)phenyl)imidazo[1,2-a]pyridin-6-ylamino)propan-2-ol]	45	1	0	370
Nc1ccc2nc(-c3ccc(-c4ccc(NCCF)nc4)cc3)sc2c1 [Compound I, 2-(4-(6-((2-Fluoroethyl)amino)pyridin-3-yl)phenyl)benzo[d]thiazol-6-amine]	5	2	1.5	800

Second part, the molecule after the results:

Ki [1] [nM]	Fluorescent binding Tangle [2]	Fluorescent binding Thread [2]	Kd [3] [nM]	Structure (SMILES)
2	3/3	3/3	990	CNc1ccc(-c2ccc(-c3cc4cc(F)ncc4[nH]3)cc2)cn1 [Compound B, 5-(4-(5-Fluoro-1H-pyrrolo[2,3-c]pyridin-2-yl)phenyl)-N-methylpyridin-2-amine]
15	3/3	3/3	940	CNc1ccc(-c2ccc(-c3cc4ccncc4[nH]3)nc2F)cn1 [Compound S, 5-[2-Fluoranyl-6-(1H-pyrrolo[2,3-c]pyridin-2-yl)pyridin-3-yl]-N-methyl-pyridin-2-amine]
5	3/3	3/3	2700	CNc1ccc(-c2ccc(-c3cc4ccncc4[nH]3)c(F)n2)cn1 [Compound E, 6-Fluoro-N-methyl-5-(1H-pyrrolo[2,3-c]pyridin-2-yl)-2,3′-bipyridin-6′-amine]
25	2	1.5	250	CNc1ccc(-c2ccc(-c3cc4ccnc(O)c4[nH]3)cc2)cn1 [Compound C, 2-(4-(6-(Methylamino)pyridin-3-yl)phenyl)-1H-pyrrolo[2,3-c]pyridin-7-ol]
45	2/2	2/2	500	Nc1cccc(-c2ccc(-c3cc4ccncc4[nH]3)cc2)c1 [Compound A, 3-[4-(1H-Pyrrolo[2,3-c]pyridin-2-yl)phenyl]aniline]
5	2.5	1.5	540	Nc1ccc(-c2ccc(-c3cc4cnccc4[nH]3)cc2)cc1F [Compound L, 3-Fluoro-4′-(1H-pyrrolo[3,2-c]pyridin-2-yl)biphenyl-4-amine]
15	2.5	2	2630	CNc1ccc(-c2ccc(-c3cc4cnccc4[nH]3)cc2)cn1 [Compound M, 5-(4-(1H-Pyrrolo[3,2-c]pyridin-2-yl)phenyl)-N-methylpyridin-2-amine]

Source: patent US12116364B2, “Heteroaryl compounds and uses thereof” (APRINOIA THERAPEUTICS INC., priority 2018, dated 2024)
